For data set [1] the following is noted: PBS (pH 7.4), n=6; cited from earlier work.
For data set [2] the following is noted: in vivo, po, 6 mg. The procedure: The study compared various dose routes: sublingual (SL), per oral tablet (PO), subcutaneous (SC) and intravenous (IV). […] An Oral Irritation assessment was performed (SL film group): Predose (0) and 24 hr postdose by Draize scoring.

Where two headings read alike, the source gives them in different places.

Turning to `CC(C)NCC(O)COc1cccc2ccccc12` (centres unmarked) [PP], in data set [1], the “C0 of saturated solution” value is 588005 ± 5852 µg/mL.
With `CNC[C@H](O)c1ccc(OC(=O)C(C)(C)C)c(OC(=O)C(C)(C)C)c1` (racemic) [dipivefrin], the “DIPI Tmax” value in data set [2] was found to be 0 h.
`CNC[C@H](O)c1ccc(O)c(O)c1` [Epinephrine Bitartrate]: the average flux (30 min, 16 mg/mL) stood at 0 μg/cm2*min; the average flux (45 min, 16 mg/mL) came out at 0.2604 μg/cm2*min; the average flux (60 min, 16 mg/mL) is given as 0.3125 μg/cm2*min; the average flux (120 min, 16 mg/mL) was determined as 0.6727 μg/cm2*min; the average flux (180 min, 16 mg/mL) came out at 1.076 μg/cm2*min; the average flux (240 min, 16 mg/mL) worked out at 1.029 μg/cm2*min. For the same compound, the average flux runs as follows: (300 min, 16 mg/mL) 1.25 μg/cm2*min; (360 min, 16 mg/mL) 1.385 μg/cm2*min. The “Average Steady State flux” value reads like this: (360 min, 4 mg/mL) 0.167 ug/cm2*min; (360 min, 8 mg/mL) 0.466 ug/cm2*min; (360 min, 16 mg/mL) 1.317 ug/cm2*min; (360 min, 100 mg/mL) 2.942 ug/cm2*min.

These data come from patent US20240148673A1 (priority 2016, published 2024).
